Data from patent publication US6242482A, “Prostaglandin compounds and derivatives thereof, compositions containing the same and method of using the same for the treatment of congestive heart failure” (priority 2000, dated 2001).
Several values for one entry are separate records, joined by “and”; a condition that tells them apart may be missing. Equal values may be shown once. Entries after “also recorded” stand apart in the source; their conditions may differ. Read-outs that look alike come from different tables or passages of the source.

Legend:
[1] = tested on: Human Platelet Aggregation (collagen-induced); test: Anti-aggregatory response after incubation with aqueous vehicle (Example 8); format: cell-based; conditions: up to 4 hours at 37° C
Procedure: (§1) Blood from healthy human volunteers who had not taken any medicine for at least 14 days was collected by venopuncture into 3.15% (w/v) tri-sodium citrate (9:1 v/v). The blood was centrifuged at 800 g for 15 minutes to produce PRP. The PRP was further centrifuged at 12,000 g for 1 minute to produce PPP. A total of 12 volunteers donated blood for the study.
(§2) Platelet aggregation was studied using a dual channel Payton aggregometer calibrated with PRP (0%) and PPP (100%) with respect to the degree of light transmission. Aliquots of PRP (500 μl) were added to siliconized cuvettes, stirred (1000 revs/min) and warmed to 37° C. The platelets were incubated for 1 minute to establish a stable baseline prior to investigation. A submaximal concentration of the aggregating agent collagen (1 μg/ml) was added to the PRP and the platelet aggregation was monitored as the increase in light transmission observed over a 4 minute period.
(§3) After the incubation period, an aliquot of the PPP or aqueous vehicle (50 μl) was added to fresh PRP (450 μl) for determination of anti-platelet activity. This experiment was repeated using PPP from at least three human volunteers for each compound.

[2] = tested on: mean arterial pressure and heart rate of anesthetized rats; test: Systemic hemodynamic effects, intravenous, anesthetized rats (Example 9); format: in vivo, rat (male Wistar)
Procedure: Among other effects, lowering of the blood pressure inside the blood vessels is beneficial for the treatment of congestive heart failure by reducing the vascular resistance of the blood flow which substantially reduces the work load imposed on the heart. […] This study involved the use of male Wistar rats anaesthetized with thiopentone sodium ([…]®, 120 mg kg^-1 i.p.). The trachea was cannulated to facilitate breathing.

[3] = tested on: Human Platelet Aggregation (collagen-induced); test: Anti-aggregatory activity, 1 min incubation with PRP, collagen-induced (Example 8); format: cell-based; conditions: 1 minute with PRP
Procedure: as §1, §2
The percentage inhibition of the platelet aggregation was calculated using the peak increase in light transmission observed over the 4 minute period following addition of collagen, as compared to that of control. This experiment was repeated using PRP from at least three human volunteers for each compound under study.

[4] = tested on: Human Platelet Aggregation (collagen-induced); test: Anti-aggregatory response after incubation with PPP (Example 8); format: cell-based
Procedure: as §1, §2, §3

[5] = tested on: mean arterial pressure and heart rate of anesthetized rats; conditions: for Time of second Δmax (superscript) / Time of Δmax (superscript) / t1/2 / Δmax (Mean Arterial Pressure) / Δmax, second value in parentheses: Table 5; for Mean Arterial Pressure: b338-b348 = 0,1,5,10,15,30,60,120,180,240,360 min
Procedure: Male Wistar rats (250-330 g) were anesthetized with thiopentone sodium (INTRAVAL®, 120 mg/kg i.p.). The trachea was cannulated to facilitate respiration. The right carotid artery was cannulated and connected to a pressure transducer (Spectramed P23XL), for the measurement of mean arterial pressure (MAP) and heart rate (HR) which were continuously recorded on a 4-channel Grass 7D polygraph recorder (Grass, Mass., U.S.A.). Body temperature was maintained at 37±1°C. by means of a rectal probe thermometer attached to a homeothermic blanket control unit (Harvard Apparatus Ltd.).

[6] = background; cited from earlier work

CCCCCC(CCC1C(OC(C)=O)CC2Cc3c(cccc3OCC(=O)O)CC21)OC(C)=O (stereo not drawn) [Compound 4, Compound X Diacetate]
effect of incubation with aqueous vehicle/saline/buffer on anti-platelet activity [1]: This effect was also observed during incubation of the compound in saline
effective life of the fall in MAP ([2]; 1 mg/kg i.v.): about 110 minutes
maximum fall in MAP ([2]; 1 mg/kg i.v.): about 30 mm Hg
time of maximum fall in MAP ([2]; 1 mg/kg i.v.): 30 min
effective life of the fall in MAP ([2]; comparison of Compound 4 with Compound X (1 mg/kg i.v.)): over 90 minutes
fall in MAP ([2]; i.v., Compound X 1 mg/kg, Compound 4 1-10 mg/kg, others 3-30 mg/kg): rapid, dose-related fall in MAP; also recorded: rapid and substantial falls in MAP
inhibiting aggregation by 50% concentration (IC50) [3]: 68 ± 2 µg/mL
inhibition of platelet aggregation, concentration dependence [3]: concentration-dependent inhibition of platelet aggregation
inhibition of aggregation response at highest concentrations ([3]; X 30 and 100 ng/ml, 4 300 μg/ml, 6 3 mg/ml, 7 10 mg/ml): completely inhibited the aggregation response
IC50 ([4]; after 15 minutes in PPP): 5 ± 0.2 µg/mL
increase in anti-platelet activity ([4]; after 15 minutes in PPP): ~10 fold
increase in activity on incubation with plasma or aqueous vehicle ([4]; initial ten (10) minute period, plasma or aqueous vehicle): ~10 fold
effect of incubation with PPP on anti-platelet activity ([4]; up to 4 hours at 37° C): no further increase in activity; also recorded: this increase in activity was no greater after four (4) hours of incubation
effective life of the fall in MAP ([5]; 1 mg/kg s.c.): > 300 min
maximum fall in MAP ([5]; 1 mg/kg s.c.): about 26 mm Hg
time of maximum fall in MAP ([5]; 1 mg/kg s.c.): 60 min
Time of second Δmax (superscript) ([5]; 1 mg/kg s.c.): 210 min
Time of Δmax (superscript) ([5]; 1 mg/kg s.c.): 60 min
t1/2 ([5]; 1 mg/kg s.c.): > 5 h
Δmax (Mean Arterial Pressure) ([5]; 1 mg/kg s.c.): 26 ± 6 mm Hg
Δmax, second value in parentheses ([5]; 1 mg/kg s.c.): 28 ± 7 mm Hg
Mean Arterial Pressure ([5]; 1 mg/kg s.c.): 87 ± 3 mm Hg and 94 ± 3 mm Hg
another fall in MAP ([5]; 1 mg/kg s.c., second fall): 28 mm Hg
time of another fall in MAP ([5]; 1 mg/kg s.c., second fall): 210 min
effective life of the fall in MAP ([5]; 3 mg/kg s.c.): > 330 min
Time of Δmax (superscript) ([5]; 3 mg/kg s.c.): 30 min
t1/2 ([5]; 3 mg/kg s.c.): > 5.5 h
Δmax (Mean Arterial Pressure) ([5]; 3 mg/kg s.c.): 41 mm Hg
Mean Arterial Pressure ([5]; 3 mg/kg s.c.): 87 ± 4 mm Hg
effective life of the fall in MAP ([5]; 10 mg/kg s.c.): > 300 min
Time of second Δmax (superscript) ([5]; 10 mg/kg s.c.): 150 min
Time of Δmax (superscript) ([5]; 10 mg/kg s.c.): 60 min
t1/2 ([5]; 10 mg/kg s.c.): > 5 h
Δmax (Mean Arterial Pressure) ([5]; 10 mg/kg s.c.): 45 ± 5 mm Hg
Δmax, second value in parentheses ([5]; 10 mg/kg s.c.): 48 ± 6 mm Hg

CCCCC[C@H](O)/C=C/[C@@H]1[C@H]2C/C(=C/CCCC(=O)O)O[C@H]2C[C@H]1O [prostacyclin]
effective life [6]: less than six
